# Assay results taken from patent publication US10441562B2, “Aromatic farnesyl compound and application thereof” (INSTITUTE OF MICROBIOLOGY, CHINESE ACADEMY OF SCIENCES, priority 2015, dated 2019).
# Where two headings read alike, the source gives them in different places.
# How the values were obtained:
# Format in all cases: biochemical
# α-glucosidase = biological target: T1, α-glucosidase (Saccharomyces cerevisiae, UniProt P53341); assay: α-glucosidase inhibitory activity test in vitro
# T1 construct: purchased Sigma Corporation G5003
# Protocol: Add 25 μL α-glucosidase water solution (0.2 U/mL) and 175 μL phosphate buffer (50 mM, pH 7.0) into 25 μL different concentration of the above test solutions. The mixed solution is standed for 10 min at room temperature, and then 25 μL 4-nitrophenyl-α-D-glucopyranoside water solution (2.5 mM) is added into the mixed solution. After the solution is incubated at 37 °C for 30 min and centrifuged at 5000 rpm for 5 minutes, 150 uL supernatant is added into 96-well plates and the absorbance is detected at 405 nm.
# Blank group: the test solution is replaced by 25 μL phosphate buffer (50 mM, pH 7.0); blank control group: the test solution is replaced by 25 μL phosphate buffer (50 mM, pH 7.0), meanwhile α-glucosidase water solution is replaced by 25 μL phosphate buffer (50 mM, pH 7.0); sample control group: α-glucosidase water solution is replaced by 25 μL phosphate buffer (50 mM, pH 7.0).
# (§1) Repeat each of the above experiment groups for 3 times, and then average the results.
# IC50=[CL(IH−50)+CH(50−IL)]/(IH−IL) CL: low concentration value; CH: high concentration value; IH: inhibition rate in high concentration; IL: inhibition rate in low concentration
# [1] = biological target: T2, protein tyrosine phosphatase 1B (PTP-1B) (Homo sapiens, UniProt P18031); assay: PTP-1B inhibitory activity test in vitro
# T2 sequence (P18031 1-435): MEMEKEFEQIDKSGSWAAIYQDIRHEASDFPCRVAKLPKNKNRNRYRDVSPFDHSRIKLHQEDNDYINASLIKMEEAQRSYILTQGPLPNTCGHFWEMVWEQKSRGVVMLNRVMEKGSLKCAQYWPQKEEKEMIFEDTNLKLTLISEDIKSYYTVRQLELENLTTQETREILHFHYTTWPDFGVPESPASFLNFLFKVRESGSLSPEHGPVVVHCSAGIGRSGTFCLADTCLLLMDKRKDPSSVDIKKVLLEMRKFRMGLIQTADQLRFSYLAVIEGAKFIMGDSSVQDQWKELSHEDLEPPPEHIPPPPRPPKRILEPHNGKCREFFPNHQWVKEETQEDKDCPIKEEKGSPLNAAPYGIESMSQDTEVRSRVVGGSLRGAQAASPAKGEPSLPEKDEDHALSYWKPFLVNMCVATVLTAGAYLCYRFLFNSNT
# Protocol: Experimental procedure: the following reagents are added into 96-well plates in sequence and the mixture ratios of different groups are as followings: Test group: 50 μL compound solution+50 μL 170 μg/mL PTP-1B solution […] Blank group: 50 μL buffer solution+50 μL 170 μg/mL PTP-1B solution Background group: 50 μL compound solution+50 μL buffer solution After adding the reagents, the 96-well plate is […] for 10 min at room temperature to make the compound and the enzyme react completely. Add 50 μL 1 mM pNPP solution which is used as substrate and incubate the mixed solution at 37 °C for 30 min. Then add 50 μL 3M NaOH into each well of the plate to stop the reaction and the optical density is detected at […].
# aldose reductase = aldose reductase (Homo sapiens, UniProt P15121); assay: aldose reductase inhibitory activity test in vitro
# Protocol: Experimental procedure: the following reagents are added into 96-well plates in sequence and the mixture ratios of different groups are as followings:
# Test group: 10 μL compound solution+25 μL (0.1 mM) NADPH solution+25 μL PBS buffer solution+15 μL aldose reductase diluent
# Blank group: 25 μL (0.1 mM) NADPH solution+35 μL PBS buffer solution+15 μL aldose reductase diluent
# Background group: 25 μL (0.1 mM) NADPH solution+60 μL PBS buffer solution+15 μL aldose reductase diluent
# After adding the reagents, the 96-well plate is standed for 10 min at room temperature to make the compound and the enzyme react completely. Add 25 μL 10 mM D, L glyceraldehyde solution which is used as substrate into the groups except for background group, and incubate the solution at 37 °C for 30 min. Then detect the optical density of each well at 340 nm.
# dipeptidyl peptidase-4 = biological target: T3, dipeptidyl peptidase-4 (Homo sapiens, UniProt P27487); assay: dipeptidyl peptidase-4 inhibitory activity test in vitro (DPP-4 inhibitor screening kit)
# T3 construct: purchased
# Text: The above compounds are detected by DPP-4 inhibitor screening kit.
# HMG-CoA reductase = biological target: T4, HMG-CoA reductase (Homo sapiens, UniProt P04035); assay: HMG-CoA reductase inhibitory activity test in vitro
# T4 sequence (P04035 426-888 limits assumed): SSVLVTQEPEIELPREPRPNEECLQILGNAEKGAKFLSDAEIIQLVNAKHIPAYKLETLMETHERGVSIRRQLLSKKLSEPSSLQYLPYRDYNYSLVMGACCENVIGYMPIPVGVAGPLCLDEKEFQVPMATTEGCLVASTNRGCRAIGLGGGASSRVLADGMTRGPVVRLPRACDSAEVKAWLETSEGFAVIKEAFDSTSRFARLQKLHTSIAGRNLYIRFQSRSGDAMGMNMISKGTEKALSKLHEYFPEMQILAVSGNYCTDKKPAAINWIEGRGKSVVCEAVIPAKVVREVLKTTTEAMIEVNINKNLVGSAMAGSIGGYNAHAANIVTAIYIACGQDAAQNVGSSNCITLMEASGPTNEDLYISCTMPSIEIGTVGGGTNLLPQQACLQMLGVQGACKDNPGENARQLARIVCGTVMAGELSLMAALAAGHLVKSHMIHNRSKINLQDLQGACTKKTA
# Protocol: Add 25 μL HMG-CoA reductase water solution (0.2 U/mL), 25 μL NADPH water solution (0.2 U/mL) and 24 μL phosphate buffer (50 mM, pH 7.0) into 1 μL different concentration of the above test solution. The mixed solution is standed for 10 min at room temperature, and then 25 μL HMG-CoA is added into the mixed solution. After the solution is incubated at 37∞ for 30 min and centrifuged at 5000 rpm for 5 minutes, 80 uL supernatant is added into 96-well plates and the absorbance is detected at 550 nm.
# as §1
# [2] = read-out: α-glucosidase inhibitory activity (IC50)
# T3 sequence (P27487 whole entry, species assumed): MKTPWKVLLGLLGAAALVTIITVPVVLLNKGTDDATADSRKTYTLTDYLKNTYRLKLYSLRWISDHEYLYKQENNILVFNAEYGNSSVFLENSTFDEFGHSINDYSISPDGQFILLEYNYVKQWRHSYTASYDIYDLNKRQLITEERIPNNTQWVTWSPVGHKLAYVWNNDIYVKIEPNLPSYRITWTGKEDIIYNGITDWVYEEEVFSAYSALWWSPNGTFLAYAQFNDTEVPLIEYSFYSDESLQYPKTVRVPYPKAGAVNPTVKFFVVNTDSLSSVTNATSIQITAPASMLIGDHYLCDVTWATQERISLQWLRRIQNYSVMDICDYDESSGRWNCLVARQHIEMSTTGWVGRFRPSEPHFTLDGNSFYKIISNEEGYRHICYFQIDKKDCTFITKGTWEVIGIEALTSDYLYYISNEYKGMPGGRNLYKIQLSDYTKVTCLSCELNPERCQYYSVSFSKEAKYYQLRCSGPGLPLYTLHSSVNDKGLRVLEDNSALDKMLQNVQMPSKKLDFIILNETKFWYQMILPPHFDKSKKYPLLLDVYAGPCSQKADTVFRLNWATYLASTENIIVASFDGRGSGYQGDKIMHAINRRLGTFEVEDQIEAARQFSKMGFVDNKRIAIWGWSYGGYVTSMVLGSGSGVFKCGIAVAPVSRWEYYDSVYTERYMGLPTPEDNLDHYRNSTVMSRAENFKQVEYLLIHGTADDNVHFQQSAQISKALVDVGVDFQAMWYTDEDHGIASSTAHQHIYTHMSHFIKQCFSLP
# T1 sequence (P53341 whole entry): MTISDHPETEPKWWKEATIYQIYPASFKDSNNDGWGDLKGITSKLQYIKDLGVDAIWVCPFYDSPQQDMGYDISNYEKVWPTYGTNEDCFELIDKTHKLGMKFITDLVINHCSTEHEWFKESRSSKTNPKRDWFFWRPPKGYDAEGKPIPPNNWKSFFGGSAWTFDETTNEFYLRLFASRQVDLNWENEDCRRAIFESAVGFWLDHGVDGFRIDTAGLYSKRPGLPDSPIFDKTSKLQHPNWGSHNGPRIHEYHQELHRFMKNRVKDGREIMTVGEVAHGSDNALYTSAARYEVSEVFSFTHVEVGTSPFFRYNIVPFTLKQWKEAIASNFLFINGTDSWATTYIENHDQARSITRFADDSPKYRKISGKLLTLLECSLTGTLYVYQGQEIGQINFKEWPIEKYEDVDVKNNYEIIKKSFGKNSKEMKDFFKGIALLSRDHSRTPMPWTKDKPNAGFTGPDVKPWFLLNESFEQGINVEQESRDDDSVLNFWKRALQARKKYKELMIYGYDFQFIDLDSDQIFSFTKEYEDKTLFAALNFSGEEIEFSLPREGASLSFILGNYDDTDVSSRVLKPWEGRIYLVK
SMILES,IC50 [1],IC50 (aldose reductase),IC50 (dipeptidyl peptidase-4),IC50 (HMG-CoA reductase),IC50 (α-glucosidase; [2]),IC50 (α-glucosidase)
"CC(C)=CCC/C(C)=C/CCC(CC(=O)c1cc(O)ccc1O)C(=O)O (stereo not shown) [S36, (E)-2-(2-(2,5-dihydroxyphenyl)-2-oxoethyl)-6,10-dimethylundeca-5,9-dienoic acid]",11.4 µM,6.3 µM,21.8 µM,4.2 µM,,3.2 µM
"CC(C)=CCC/C(C)=C/CCC1=C[C@@H](c2c(F)cccc2F)OC1=O [S29, (S,E)-5-(2,6-difluorophenyl)-3-(4,8-dimethylnona-3,7-dien-1-yl)furan-2(5H)-one]",4.4 µM,33.5 µM,23.5 µM,16.8 µM,3.95 µM,
"C/C(C=O)=C\CC/C(C)=C/CC/C(=C/Cc1cc(O)ccc1O)C(=O)O [S35, (2Z,5E,9E)-2-(2-(2,5-dihydroxyphenyl)ethylidene)-6,10-dimethyl-11-oxo undeca-5,9-dienoic acid]",12.3 µM,5.6 µM,7.8 µM,20.7 µM,,12.3 µM
"COc1ccc(OC)c([C@H]2C=C(CC/C=C(\C)CCC=C(C)C)C(=O)O2)c1 [S12, (R,E)-5-(2,5-dimethoxyphenyl)-3-(4,8-dimethylnona-3,7-dien-1-yl)furan-2(5H)-one]",11.8 µM,26.1 µM,8.8 µM,4.4 µM,11.5 µM,
"COCOc1ccccc1[C@@H]1C=C(CC/C=C(\C)CCC=C(C)C)C(=O)O1 [S18, (S,E)-3-(4,8-dimethylnona-3,7-dien-1-yl)-5-(2-(methoxymethoxy)phenyl) furan-2(5H)-one]",8.2 µM,40.2 µM,14.4 µM,6.2 µM,8.2 µM,
"COC1(c2cc(O)ccc2O)C=C(CC/C=C(\C)CCC=C(C)C)C(=O)O1 (stereo not shown) [S31, (E)-5-(2,5-dihydroxyphenyl)-3-(4,8-dimethylnona-3,7-dien-1-yl)-5-meth oxyfuran-2(5H)-one]",15.4 µM,87.6 µM,15.4 µM,32.3 µM,,3.23 µM
"CC(C)=CCC/C(C)=C/CCC1=C[C@H](c2cc(F)c(F)c(F)c2)OC1=O [S15, (R,E)-3-(4,8-dimethylnona-3,7-dien-1-yl)-5-(3,4,5-trifluorophenyl)furan-2(5H)-one]",25.4 µM,54.9 µM,12.1 µM,38.2 µM,1.27 µM,
"CC(C)c1c(C(=O)Nc2ccccc2)c(-c2ccccc2)c(-c2ccc(F)cc2)n1CC[C@@H](O)C[C@@H](O)CC(=O)O [atorvastatin, reference compound]",,,,,,273 µM

# Further lines, with some results ahead:
IC50 [1],IC50 (aldose reductase),IC50 (dipeptidyl peptidase-4),IC50 (HMG-CoA reductase),IC50 (α-glucosidase; [2]),SMILES,IC50 (α-glucosidase)
3.7 µM,32.1 µM,24.5 µM,25.1 µM,3.72 µM,"CC(C)=CCC/C(C)=C/CCC1=C[C@H](c2c(F)cccc2F)OC1=O [S14, (R,E)-5-(2,6-difluorophenyl)-3-(4,8-dimethylnona-3,7-dien-1-yl)furan-2(5H)-one]",
15.5 µM,59 µM,9.2 µM,4.2 µM,0.58 µM,"CCc1ccc([C@H]2C=C(CC/C=C(\C)CCC=C(C)C)C(=O)O2)cc1 [S7, (R,E)-3-(4,8-dimethylnona-3,7-dien-1-yl)-5-(4-ethylphenyl)furan-2(5H)-one]",
10.1 µM,> 100 µM,18.2 µM,1.2 µM,> 50 µM,"COc1ccc([C@H]2C=C(CC/C=C(\C)CCC=C(C)C)C(=O)O2)cc1 [S10, (R,E)-3-(4,8-dimethylnona-3,7-dien-1-yl)-5-(4-methoxyphenyl)furan-2(5H)-one]",
10.5 µM,56.1 µM,12.2 µM,3.8 µM,0.18 µM,"CC(C)=CCC/C(C)=C/CCC1=C[C@H](c2ccccc2)OC1=O [S1, (R,E)-3-(4,8-dimethylnona-3,7-dien-1-yl)-5-phenylfuran-2 (5H)-one]",
9.8 µM,5.3 µM,10.6 µM,7.5 µM,30.3 µM,"CC(C)=CCC/C(C)=C/CCC1=C[C@@H](c2ccc([N+](=O)[O-])cc2)OC1=O [S26, (S,E)-3-(4,8-dimethylnona-3,7-dien-1-yl)-5-(4-nitrophenyl)furan-2(5H)-one]",
9.8 µM,67.5 µM,12.9 µM,12.5 µM,1.23 µM,"CC(C)=CCCC1=C[C@@H](c2cc(O)ccc2O)OC1=O [S38, (S)-5-(2,5-dihydroxyphenyl)-3-(4-methylpent-3-en-1-yl)furan-2(5H)-one]",
17.6 µM,1.2 µM,15.8 µM,15.2 µM,0.23 µM,"CC(C)=CCC/C(C)=C/CCC1=C[C@@H](c2ccc(C(C)(C)C)cc2)OC1=O [S24, (S,E)-5-(4-(tert-butyl)phenyl)-3-(4,8-dimethylnona-3,7-dien-1-yl)furan-2 (5H)-one]",
16.5 µM,101 µM,18.5 µM,1.5 µM,52.1 µM,"COc1ccc([C@@H]2C=C(CC/C=C(\C)CCC=C(C)C)C(=O)O2)cc1 [S25, (S,E)-3-(4,8-dimethylnona-3,7-dien-1-yl)-5-(4-methoxyphenyl)furan-2(5H)-one]",
12.7 µM,84.4 µM,9.4 µM,> 100 µM,56.2 µM,"CC(C)=CCC/C(C)=C/CCC1=C[C@H](c2ccc(C(C)C)cc2)OC1=O [S8, (R,E)-3-(4,8-dimethylnona-3,7-dien-1-yl)-5-(4-isopropylphenyl)furan-2(5H)-one]",
4.7 µM,9.5 µM,20.8 µM,13.8 µM,0.21 µM,"CC(C)=CCC/C(C)=C/CCC1=C[C@@H](c2ccccc2[N+](=O)[O-])OC1=O [S20, (S,E)-3-(4,8-dimethylnona-3,7-dien-1-yl)-5-(2-nitrophenyl)furan-2(5H)-one]",
5.6 µM,63.2 µM,31.5 µM,8.1 µM,1.06 µM,"CC(C)=CCC/C(C)=C/CCC1=C[C@H](c2ccc(C)cc2)OC1=O [S6, (R,E)-3-(4,8-dimethylnona-3,7-dien-1-yl)-5-(p-tolyl)furan-2(5H)-one]",
